ChEMBL document CHEMBL1148556, “Synthesis and preliminary biological evaluation of (2S,1'R,2'S)- and (2S,1'S,2'R)-2-(2'-phosphonocyclopropyl)glycines, two novel conformationally constrained l-AP4 analogues” (Bioorg Med Chem Lett, 2006)

Experiments:
[1] = molecular target: Metabotropic glutamate receptor 1 (Rattus norvegicus, UniProt P23385); test: Activity at rat mGluR1 by measuring intracellular calcium concentration in CHO cells; type: functional, cell-based
[2] = molecular target: Metabotropic glutamate receptor 5 (Rattus norvegicus, UniProt P31424); test: Activity at rat mGluR5 by measuring intracellular calcium concentration in CHO cells; type: functional, cell-based
Metabotropic glutamate receptor 5, sequence (P31424 whole entry): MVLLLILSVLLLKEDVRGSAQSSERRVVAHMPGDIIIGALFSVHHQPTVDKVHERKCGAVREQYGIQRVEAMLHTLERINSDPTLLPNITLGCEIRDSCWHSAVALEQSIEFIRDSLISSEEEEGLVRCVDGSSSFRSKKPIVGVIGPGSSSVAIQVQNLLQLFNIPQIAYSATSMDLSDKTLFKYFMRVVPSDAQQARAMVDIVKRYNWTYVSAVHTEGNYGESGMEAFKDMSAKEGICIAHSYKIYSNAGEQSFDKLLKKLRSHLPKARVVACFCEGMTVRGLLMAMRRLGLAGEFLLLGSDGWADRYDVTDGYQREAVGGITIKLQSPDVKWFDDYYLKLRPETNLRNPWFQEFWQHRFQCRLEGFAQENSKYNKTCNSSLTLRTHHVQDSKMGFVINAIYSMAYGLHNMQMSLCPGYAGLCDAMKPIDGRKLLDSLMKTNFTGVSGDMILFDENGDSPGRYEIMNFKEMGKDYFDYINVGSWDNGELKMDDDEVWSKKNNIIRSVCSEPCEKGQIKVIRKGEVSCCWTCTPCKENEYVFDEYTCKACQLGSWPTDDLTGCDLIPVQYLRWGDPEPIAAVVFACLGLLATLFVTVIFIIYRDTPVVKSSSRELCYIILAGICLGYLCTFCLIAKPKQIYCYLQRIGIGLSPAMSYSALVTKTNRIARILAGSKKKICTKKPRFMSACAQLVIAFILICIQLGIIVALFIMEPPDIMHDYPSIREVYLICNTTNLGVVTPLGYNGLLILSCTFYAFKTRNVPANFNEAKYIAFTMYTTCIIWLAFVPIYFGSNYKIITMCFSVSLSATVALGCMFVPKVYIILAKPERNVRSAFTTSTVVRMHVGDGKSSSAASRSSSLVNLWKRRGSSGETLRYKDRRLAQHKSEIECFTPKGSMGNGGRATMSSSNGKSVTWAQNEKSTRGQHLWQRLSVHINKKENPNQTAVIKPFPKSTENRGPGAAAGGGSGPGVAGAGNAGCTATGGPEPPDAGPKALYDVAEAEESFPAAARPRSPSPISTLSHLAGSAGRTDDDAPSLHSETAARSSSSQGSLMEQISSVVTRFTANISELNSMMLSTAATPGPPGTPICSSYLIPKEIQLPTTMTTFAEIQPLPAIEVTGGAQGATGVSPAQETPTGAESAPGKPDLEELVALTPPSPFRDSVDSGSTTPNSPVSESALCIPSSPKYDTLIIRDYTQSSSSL

[3] = molecular target: Metabotropic glutamate receptor 2 (Homo sapiens, UniProt Q14416); test: Activity at human mGluR2 from BHK cells in [35S]GTP-gamma-S stimulation assay; type: functional, cell-based
[4] = molecular target: T1, Metabotropic glutamate receptor 4 (Rattus norvegicus, UniProt P31423); test: Functional activity at rat mGluR4
T1 sequence (P31423 whole entry): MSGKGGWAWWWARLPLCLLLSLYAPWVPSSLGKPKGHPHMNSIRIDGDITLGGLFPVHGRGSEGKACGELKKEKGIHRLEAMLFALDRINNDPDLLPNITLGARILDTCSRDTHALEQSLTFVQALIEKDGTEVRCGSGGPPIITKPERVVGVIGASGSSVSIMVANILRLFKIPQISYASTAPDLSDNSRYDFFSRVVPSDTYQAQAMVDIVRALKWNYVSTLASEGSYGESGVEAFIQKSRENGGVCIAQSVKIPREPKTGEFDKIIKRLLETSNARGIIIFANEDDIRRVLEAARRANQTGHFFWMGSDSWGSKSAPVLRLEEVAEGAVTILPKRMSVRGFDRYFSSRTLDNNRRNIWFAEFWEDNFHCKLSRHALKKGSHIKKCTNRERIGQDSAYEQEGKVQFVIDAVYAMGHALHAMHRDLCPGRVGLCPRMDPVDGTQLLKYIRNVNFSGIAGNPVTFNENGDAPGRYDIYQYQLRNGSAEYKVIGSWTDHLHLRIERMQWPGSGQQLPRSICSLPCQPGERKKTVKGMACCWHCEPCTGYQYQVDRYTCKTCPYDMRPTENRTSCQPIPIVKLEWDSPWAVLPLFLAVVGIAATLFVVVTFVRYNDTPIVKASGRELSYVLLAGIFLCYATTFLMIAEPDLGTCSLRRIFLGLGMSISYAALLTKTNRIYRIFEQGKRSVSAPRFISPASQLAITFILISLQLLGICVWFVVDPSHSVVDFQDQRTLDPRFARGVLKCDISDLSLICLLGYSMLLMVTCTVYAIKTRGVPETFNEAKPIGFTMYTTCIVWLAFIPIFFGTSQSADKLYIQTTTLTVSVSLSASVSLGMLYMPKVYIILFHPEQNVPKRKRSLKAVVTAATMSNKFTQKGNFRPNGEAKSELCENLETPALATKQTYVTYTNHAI

[5] = molecular target: Metabotropic glutamate receptor 6 (Rattus norvegicus, UniProt P35349); test: Activity at rat mGluR6 by measuring cAMP formation in CHO cells; type: functional, cell-based
Metabotropic glutamate receptor 6, sequence (P35349 whole entry): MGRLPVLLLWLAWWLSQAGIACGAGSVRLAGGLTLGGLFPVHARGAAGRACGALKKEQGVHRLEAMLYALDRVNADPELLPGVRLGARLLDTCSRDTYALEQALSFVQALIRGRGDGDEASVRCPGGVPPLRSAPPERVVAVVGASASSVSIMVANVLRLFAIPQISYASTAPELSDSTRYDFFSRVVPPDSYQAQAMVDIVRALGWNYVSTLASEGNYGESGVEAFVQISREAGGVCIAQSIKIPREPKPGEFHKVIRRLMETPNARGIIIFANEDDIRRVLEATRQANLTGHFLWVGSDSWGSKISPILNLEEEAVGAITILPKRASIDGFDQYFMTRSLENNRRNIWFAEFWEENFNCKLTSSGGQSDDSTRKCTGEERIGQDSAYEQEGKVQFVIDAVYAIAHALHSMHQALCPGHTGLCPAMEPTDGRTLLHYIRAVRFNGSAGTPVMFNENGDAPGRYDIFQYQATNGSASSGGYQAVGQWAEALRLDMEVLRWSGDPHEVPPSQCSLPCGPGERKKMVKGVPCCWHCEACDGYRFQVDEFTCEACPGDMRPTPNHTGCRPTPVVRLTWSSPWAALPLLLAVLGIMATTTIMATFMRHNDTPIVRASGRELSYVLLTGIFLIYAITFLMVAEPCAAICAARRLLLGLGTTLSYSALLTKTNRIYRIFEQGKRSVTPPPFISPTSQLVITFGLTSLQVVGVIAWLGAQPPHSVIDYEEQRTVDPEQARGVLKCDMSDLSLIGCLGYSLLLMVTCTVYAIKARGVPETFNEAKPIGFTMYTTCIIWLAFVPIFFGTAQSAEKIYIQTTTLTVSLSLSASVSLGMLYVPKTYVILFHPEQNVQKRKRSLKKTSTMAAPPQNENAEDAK

[6] = molecular target: Metabotropic glutamate receptor 7 (Homo sapiens, UniProt Q14831); test: Activity at human mGluR7 by measuring cAMP formation in BHK cells; type: functional, cell-based
Metabotropic glutamate receptor 7, sequence (Q14831 whole entry): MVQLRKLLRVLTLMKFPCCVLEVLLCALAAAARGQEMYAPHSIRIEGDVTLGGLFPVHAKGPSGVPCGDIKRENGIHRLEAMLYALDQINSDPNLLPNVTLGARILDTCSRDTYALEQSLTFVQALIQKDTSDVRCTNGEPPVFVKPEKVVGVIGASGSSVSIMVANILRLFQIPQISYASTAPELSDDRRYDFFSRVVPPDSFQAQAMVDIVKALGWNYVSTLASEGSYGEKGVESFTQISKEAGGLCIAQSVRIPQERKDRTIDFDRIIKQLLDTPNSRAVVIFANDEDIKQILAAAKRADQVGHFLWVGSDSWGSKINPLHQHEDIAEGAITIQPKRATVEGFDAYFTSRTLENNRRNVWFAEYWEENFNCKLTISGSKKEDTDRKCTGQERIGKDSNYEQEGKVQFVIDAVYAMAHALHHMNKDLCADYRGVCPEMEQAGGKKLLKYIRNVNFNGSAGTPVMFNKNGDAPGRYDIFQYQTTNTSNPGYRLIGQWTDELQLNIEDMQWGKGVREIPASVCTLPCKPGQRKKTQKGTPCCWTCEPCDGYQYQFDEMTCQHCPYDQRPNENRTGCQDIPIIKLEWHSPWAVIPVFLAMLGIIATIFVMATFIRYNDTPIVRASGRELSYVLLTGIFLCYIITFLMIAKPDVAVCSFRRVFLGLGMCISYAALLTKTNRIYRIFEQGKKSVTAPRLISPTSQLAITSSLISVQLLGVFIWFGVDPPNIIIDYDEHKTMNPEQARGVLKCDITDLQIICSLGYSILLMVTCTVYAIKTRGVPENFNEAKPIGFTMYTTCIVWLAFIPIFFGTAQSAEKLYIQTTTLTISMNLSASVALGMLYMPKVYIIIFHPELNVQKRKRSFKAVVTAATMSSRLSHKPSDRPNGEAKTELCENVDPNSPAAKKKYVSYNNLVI

[7] = molecular target: T1, Metabotropic glutamate receptor 4; test: Displacement of [3H]L-AP4 from rat mGluR4 expressed in BHK cells; type: cell-based
[8] = molecular target: Metabotropic glutamate receptor 8 (Rattus norvegicus, UniProt P70579); test: Displacement of [3H]LY341495 from rat mGluR8 expressed in BHK cells; type: cell-based
Metabotropic glutamate receptor 8, sequence (P70579 whole entry): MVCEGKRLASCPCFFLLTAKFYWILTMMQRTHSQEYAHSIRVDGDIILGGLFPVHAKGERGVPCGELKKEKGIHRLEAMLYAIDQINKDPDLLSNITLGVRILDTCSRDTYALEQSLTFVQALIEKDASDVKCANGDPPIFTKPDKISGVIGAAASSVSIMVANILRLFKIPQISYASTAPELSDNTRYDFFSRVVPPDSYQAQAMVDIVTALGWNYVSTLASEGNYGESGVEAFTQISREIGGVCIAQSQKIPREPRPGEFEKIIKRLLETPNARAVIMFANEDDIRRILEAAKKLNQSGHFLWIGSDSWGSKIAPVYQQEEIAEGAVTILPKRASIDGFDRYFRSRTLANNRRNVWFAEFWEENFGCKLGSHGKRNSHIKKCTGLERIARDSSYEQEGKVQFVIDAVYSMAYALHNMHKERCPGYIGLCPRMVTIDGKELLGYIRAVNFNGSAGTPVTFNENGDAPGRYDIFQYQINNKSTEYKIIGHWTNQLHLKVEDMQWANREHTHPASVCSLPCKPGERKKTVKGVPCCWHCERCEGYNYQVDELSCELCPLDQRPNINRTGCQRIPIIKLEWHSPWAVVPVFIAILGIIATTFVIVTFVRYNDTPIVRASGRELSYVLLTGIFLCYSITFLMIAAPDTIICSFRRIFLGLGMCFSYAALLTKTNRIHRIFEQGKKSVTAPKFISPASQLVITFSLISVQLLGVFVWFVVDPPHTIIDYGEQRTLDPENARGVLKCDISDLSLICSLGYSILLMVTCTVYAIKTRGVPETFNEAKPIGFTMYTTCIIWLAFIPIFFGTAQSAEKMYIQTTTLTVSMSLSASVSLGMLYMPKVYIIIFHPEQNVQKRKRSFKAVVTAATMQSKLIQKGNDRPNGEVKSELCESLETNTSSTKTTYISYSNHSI

N[C@H](C(=O)O)[C@H]1C[C@@H]1P(=O)(O)O
EC50 [1]: > 1000 µM
EC50 [2]: > 1000 µM
EC50 [3]: > 1000 µM
EC50 [4]: 9.4 µM
EC50 [5]: 13 µM
EC50 [6]: 700 µM
Ki [7]: 7.4 µM
Ki [8]: 63 µM

N[C@H](C(=O)O)[C@@H]1C[C@H]1P(=O)(O)O
EC50 [1]: > 1000 µM
EC50 [2]: > 1000 µM
EC50 [3]: > 1000 µM
EC50 [4]: 49 µM
EC50 [5]: 46 µM
EC50 [6]: > 1000 µM
Ki [7]: 53 µM
Ki [8]: 54 µM

N[C@@H](CCP(=O)(O)O)C(=O)O
EC50 [1]: > 1000 µM
EC50 [2]: > 1000 µM
EC50 [3]: > 1000 µM
EC50 [4]: 0.51 µM
EC50 [5]: 0.34 µM
EC50 [6]: 188 µM
Ki [7]: 0.16 µM
Ki [8]: 1.9 µM

N[C@@H](CCC(=O)O)C(=O)O [GLUTAMIC ACID]
EC50 [4]: 6.1 µM
EC50 [5]: 7.6 µM
EC50 [6]: > 1000 µM
Ki [7]: 3.4 µM
Ki [8]: 3.4 µM
